Results taken from patent US20080026996A1, “Selective Vpac2 Receptor Reptide Agonists” (ELI LILLY AND COMPANY, priority 2004, published 2008).
Where two headings read alike, the source gives them in different places. Where a SMILES comes first, the peptide text is derived from it. Where no end group is shown, it is not given here. [ ]: non-standard residue; d: D form. The star is where a group is joined. Met(O) = CS(=O)CC[C@H](N)C(=O)O; Hexanoyl = CCCCCC(=O)*

Columns and labels:
[1] = biological target: T1, human PAC1 (Homo sapiens, UniProt P41586); test: Filter binding assay, membranes of cells transiently transfected with human PAC1, 125I-labeled PACAP-27 tracer (Table 2); set-up: expressed in transfected cells
T1 sequence (P41586 21-468): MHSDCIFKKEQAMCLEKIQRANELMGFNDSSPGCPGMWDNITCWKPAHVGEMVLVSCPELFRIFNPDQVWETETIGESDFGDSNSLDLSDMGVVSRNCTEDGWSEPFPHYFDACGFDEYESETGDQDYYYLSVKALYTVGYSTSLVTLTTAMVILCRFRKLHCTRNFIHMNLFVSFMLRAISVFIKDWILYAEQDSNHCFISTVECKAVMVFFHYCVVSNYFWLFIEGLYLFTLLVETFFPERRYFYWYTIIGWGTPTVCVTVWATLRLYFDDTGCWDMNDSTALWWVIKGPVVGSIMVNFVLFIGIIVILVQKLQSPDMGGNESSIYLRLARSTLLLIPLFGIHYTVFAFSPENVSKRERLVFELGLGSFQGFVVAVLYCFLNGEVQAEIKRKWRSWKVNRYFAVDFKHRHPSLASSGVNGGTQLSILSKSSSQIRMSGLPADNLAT
Protocol: (§1) For this assay, the solutions and equipment include:
(§2) Presoak solution: 0.5% Polyethyleneamine in Aqua dest.
(§3) Buffer for flushing filter plates: 25 mM HEPES pH 7.4
(§4) Blocking buffer: 25 mM HEPES pH 7.4; 0.2% protease free BSA
(§5) Assay buffer: 25 mM HEPES pH 7.4; 0.5% protease free BSA
(§6) Dilution and assay plate: PS-Microplate, U form
(§7) Filtration Plate Multiscreen FB Opaque Plate; […] Type B Glasfiber filter
(§8) In order to prepare the filter plates, aspirate the presoak solution by vacuum filtration. Flush the plates twice with 200 μL flush buffer. Add 200 μL blocking buffer to the filter plate. The filter plate is then incubated […] for 1 hour at room temperature.
(§9) Fill the assay plate with 25 μL assay buffer, 25 μL membranes (2.5 μg) suspended in assay buffer, 25 μL compound (agonist) in assay buffer, and 25 μL tracer (about 40000 cpm) in assay buffer. Incubate the filled plate for 1 hour with shaking.
(§10) Conduct the transfer from assay plate to filter plate. Aspirate the blocking buffer by vacuum filtration and wash two times with flush buffer. Transfer 90 μL from the assay plate to the filter plate. Aspirate the 90 μL transferred from assay plate and wash three times with 200 μL flush buffer. Remove the plastic support. Dry for 1 hour at 60° C. Add 30 μL Microscint. Perform the count.

[2] = biological target: T2, human VPAC2 (Homo sapiens, UniProt P41587); test: Alpha screen cAMP in vitro potency, human VPAC2 receptor; type: cell-based; settings: cAMP generation; single result from two analyses performed in a single run; read-out: Human VPAC2 Receptor: Alpha Screen EC50
T2 construct: expressed in transfected cells
T2 sequence (P41587 24-438): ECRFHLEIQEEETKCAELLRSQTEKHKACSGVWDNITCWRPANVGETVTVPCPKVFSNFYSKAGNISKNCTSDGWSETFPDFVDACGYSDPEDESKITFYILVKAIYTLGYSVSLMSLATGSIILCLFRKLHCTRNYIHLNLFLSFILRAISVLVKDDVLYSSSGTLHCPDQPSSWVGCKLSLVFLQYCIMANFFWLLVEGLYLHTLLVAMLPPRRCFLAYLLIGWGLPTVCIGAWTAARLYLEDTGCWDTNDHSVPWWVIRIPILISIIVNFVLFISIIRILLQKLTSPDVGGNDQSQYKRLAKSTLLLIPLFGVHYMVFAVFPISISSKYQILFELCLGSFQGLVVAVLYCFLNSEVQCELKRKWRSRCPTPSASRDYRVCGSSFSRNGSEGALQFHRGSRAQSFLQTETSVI
Protocol: Alpha screen: Cells are washed in the culture flask once with PBS. Then, the cells are rinsed with enzyme free dissociation buffer. The dissociated cells are removed. The cells are then spun down and washed in stimulation buffer. For each data point, 50,000 cells suspended in stimulation buffer are used. To this buffer, Alpha screen acceptor beads are added along with the stimuli. This mixture is incubated for 60 minutes. Lysis buffer and Alpha screen donor beads are added and are incubated for 60 to 120 minutes. The Alpha screen signal (indicative of intracellular cAMP levels) is read in a suitable instrument (e.g. AlphaQuest from Perkin-Elmer). Steps including Alpha screen donor and acceptor beads are performed in reduced light.

[3] = biological target: T2, human VPAC2; test: Filter binding assay, membranes of stable VPAC2 cell line, 125I-labeled VIP tracer (Table 2)
Protocol: as §1, §2, §3, §4, §5, §6, §7, §8, §9, §10

[4] = biological target: T3, human VPAC1 (Homo sapiens, UniProt P32241); test: Filter binding assay, membranes of cells transiently transfected with human VPAC1, 125I-labeled VIP tracer (Table 2); set-up: expressed in transfected cells
T3 sequence (P32241 31-457): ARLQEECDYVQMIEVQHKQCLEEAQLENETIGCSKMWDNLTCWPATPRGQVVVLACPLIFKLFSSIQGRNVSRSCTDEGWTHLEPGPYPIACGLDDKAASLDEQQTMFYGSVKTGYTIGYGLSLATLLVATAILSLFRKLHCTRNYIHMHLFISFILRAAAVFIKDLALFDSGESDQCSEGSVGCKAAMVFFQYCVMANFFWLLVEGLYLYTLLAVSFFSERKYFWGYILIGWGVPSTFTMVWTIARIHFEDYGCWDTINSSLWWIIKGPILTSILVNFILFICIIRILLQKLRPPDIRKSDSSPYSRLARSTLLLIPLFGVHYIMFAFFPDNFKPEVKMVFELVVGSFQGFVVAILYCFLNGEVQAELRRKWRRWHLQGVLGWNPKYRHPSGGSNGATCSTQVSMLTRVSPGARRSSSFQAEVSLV
Protocol: as §1, §2, §3, §4, §5, §6, §7, §8, §9, §10

[5] = read-out: Human PAC1 Receptor Binding
[6] = read-out: Human VPAC2 Receptor Binding
[7] = read-out: Human VPAC1 Receptor Binding

Compound | IC50 [1, 5] [nM] | EC50 [2] [nM] | IC50 [3, 6] [nM] | IC50 [4, 7] [nM] | IC50 [1] [nM] | IC50 [3] [nM] | IC50 [4] [nM]
CCCCCC(=O)N[C@@H](Cc1c[nH]cn1)C(=O)N[C@@H](CO)C(=O)N[C@@H](CC(=O)O)C(=O)N[C@@H](C)C(=O)N[C@H](C(=O)N[C@@H](Cc1ccccc1)C(=O)N[C@H](C(=O)N[C@@H](CC(=O)O)C(=O)N[C@@H](CC(N)=O)C(=O)N[C@@H](Cc1ccc(O)cc1)C(=O)N[C@H](C(=O)N[C@@H](CCCNC(=N)N)C(=O)N[C@@H](CC(C)C)C(=O)N[C@@H](CCCNC(=N)N)C(=O)N[C@@H](CCCCN)C(=O)N[C@@H](CCC(N)=O)C(=O)N[C@H](C(=O)N[C@@H](C)C(=O)N[C@@H](C)C(=O)N[C@@H](CCC(N)=O)C(=O)N[C@@H](CCCCN)C(=O)N[C@@H](Cc1ccc(O)cc1)C(=O)N[C@@H](CC(C)C)C(=O)N[C@@H](CC(N)=O)C(=O)N[C@@H](CCC(N)=O)C(=O)N[C@@H](CC(C)C)C(=O)N[C@@H](CCCCN)C(=O)N[C@@H](CCCCN)C(=O)NCC(=O)NCC(=O)N1CCC[C@H]1C(=O)N[C@@H](CO)C(=O)N[C@@H](CO)C(=O)NCC(=O)N[C@@H](C)C(=O)N1CCC[C@H]1C(=O)N1CCC[C@H]1C(=O)N1CCC[C@H]1C(=O)N[C@@H](CO)C(=O)O)C(C)C)[C@@H](C)O)[C@@H](C)O)C(C)C [Agonist P144] (Hexanoyl-HSDAVFTDNYTRLRKQVAAQKYLNQLKKGGPSSGAPPPS-OH; C-terminus assumed) | 1180 | 0.32 | 0.57 | 4.43 |  |  | 
Hexanoyl-HSDAVFTDNYTRLRKQVAAKKYLQTIKNKRYGGPSSGAPPPS [Agonist P115] | 190 | 0.2 | 0.1 | 267 |  |  | 
Hexanoyl-HSEAVFTDNYTRLRKQVAAKKYLQSIKNKRYGGPSSGAPPPS [Agonist P224] | 210 | 0.14 | 0.35 | 208 |  |  | 
Hexanoyl-HSDAVFTDNYTRLRKQVAAKKWLQSIKNKRYGGPSSGAPPPS [Agonist P129] | 678 | 0.49 | 0.38 | 462 |  |  | 
Hexanoyl-HSDAVFTDNYTRLRKQVAAKKVLQSIKNKRYGGPSSGAPPPS [Agonist P134] | 479 |  | 2.13 | 833 |  |  | 
Hexanoyl-HSDAVFTDQYTRLLAKLALQKYLQSIKQKRYGGPSSGAPPPS [Agonist P192] | 14300 | 0.18 | 0.53 | 1430 |  |  | 
Hexanoyl-HSDAVFTDNYTRLRKQVAAKKFLQSIKNKRYGGPSSGAPPPS [Agonist P130] | 444 | 0.77 | 0.43 | 233 |  |  | 
Hexanoyl-HSDAVFTDNYTRLKAQVAAKKYLQSIKNKRYGGPSSGAPPPS [Agonist P141] | 658 | 0.72 | 0.64 | 25.9 |  |  | 
Hexanoyl-HSDAVFTDNYTRLRKQVAAKKYLQFIKNKRYGGPSSGAPPPS [Agonist P112] | 164 | 0.16 | 0.49 | 193 |  |  | 
Hexanoyl-HSDAVFTDNYTRLLAKLALQKYLQSIKNKRYGGPSSGAPPPC [Agonist P164] | 9370 | 0.11 | 2.46 | > 3000 |  |  | 
Hexanoyl-HSDAVFTDNYTRLRKQVAAKKTLQSIKNKRYGGPSSGAPPPS [Agonist P131] | 632 |  | 5.67 | 1370 |  |  | 
Hexanoyl-HHSDAVFTDNYTRLLAKLALQKYLQSIKNKRYGGPSSGAPPPS [Agonist P191] | > 25000 |  | 60.6 | 1280 |  |  | 
Hexanoyl-HSDAVFTLNYTRLRKQVAAKKYLQSIKNKRYGGPSSGAPPPS [Agonist P161] | 4260 |  | 6.61 | 119 |  |  | 
H-HSDGVFTDNYTRLRKQVAAKKYLQSIKNKRYGGPSSGAPPPS [Agonist P102] |  |  |  |  | 55 | 15.4 | 184
[Met(O)]HSDAVFTDNYTRLRKQVAAKKYLQSIKNKRYGGPSSGAPPPS [Agonist P199] |  |  |  |  | 244 | 8.26 | 429
CCCCCC(=O)N[C@@H](Cc1c[nH]cn1)C(=O)N[C@@H](CO)C(=O)N[C@@H](CC(=O)O)C(=O)N[C@@H](C)C(=O)N[C@H](C(=O)N[C@@H](Cc1ccccc1)C(=O)N[C@H](C(=O)N[C@@H](CC(=O)O)C(=O)N[C@@H](CC(N)=O)C(=O)N[C@@H](Cc1ccc(O)cc1)C(=O)N[C@H](C(=O)N[C@@H](CCCNC(=N)N)C(=O)N[C@@H](CC(C)C)C(=O)N[C@@H](CCCNC(=N)N)C(=O)N[C@@H](CCCCN)C(=O)N[C@@H](CCC(N)=O)C(=O)NC(C)(C)C(=O)N[C@@H](C)C(=O)N[C@@H](C)C(=O)N[C@@H](CCCCN)C(=O)N[C@@H](CCCCN)C(=O)N[C@@H](Cc1ccc(O)cc1)C(=O)N[C@@H](CC(C)C)C(=O)N[C@@H](CCC(N)=O)C(=O)N[C@@H](CO)C(=O)N[C@H](C(=O)N[C@@H](CCCCN)C(=O)N[C@@H](CC(N)=O)C(=O)N[C@@H](CCCCN)C(=O)N[C@@H](CCCNC(=N)N)C(=O)N[C@@H](Cc1ccc(O)cc1)C(=O)NCC(=O)NCC(=O)N1CCC[C@H]1C(=O)N[C@@H](CO)C(=O)N[C@@H](CO)C(=O)NCC(=O)N[C@@H](C)C(=O)N1CCC[C@H]1C(=O)N1CCC[C@H]1C(=O)N1CCC[C@H]1C(=O)N[C@@H](CO)C(=O)O)[C@@H](C)CC)[C@@H](C)O)[C@@H](C)O)C(C)C [Agonist P189] | 303 |  | 0.2 | 6.87 |  |  | 
Hexanoyl-HSDAVFTRNYTRLRKQVAAKKYLQSIKNKRYGGPSSGAPPPS [Agonist P162] | 186 |  | 3.72 | 5.14 |  |  | 
Hexanoyl-HSDAVFTDNYTRLRKQVAAKKLLQSIKNKRYGGPSSGAPPPS [Agonist P132] | 1020 |  | 1.51 | 617 |  |  | 
HSDAVFTDNYTREKEKVAAKKYLQSIKNKRYGGPSSGAPPPS [Agonist P87] |  | > 10000 | 1110 | 636 |  |  | 
IHSDAVFTDNYTRLRKQVAAKKYLQSIKNKRYGGPSSGAPPPS [Agonist P105] |  |  |  |  | 127 | 5.41 | 263
